Laboratory results from ChEMBL document CHEMBL4619788, “Chemically Induced Degradation of FAK-ALK for Application in Cancer Therapeutics” (ACS Med Chem Lett, 2020).

How the values were obtained:
[1] = biological target: T1, Protein cereblon/Focal adhesion kinase 1 (Homo sapiens) (UniProt Q05397+Q96SW2); assay: Protac activity at CRBN/FAK in human PA-TU-8988T cells assessed as induction of FAK degradation at 10 nM incubated for 4 hrs by immunoblot assay relative to control; assay type: cell-based
[2] = biological target: T1, Protein cereblon/Focal adhesion kinase 1 (Homo sapiens); assay: Protac activity at CRBN/FAK in human PA-TU-8988T cells assessed as induction of FAK degradation at 100 nM incubated for 4 hrs by immunoblot assay relative to control; assay type: cell-based

T1 sequence (Q05397 2-1052 limits assumed): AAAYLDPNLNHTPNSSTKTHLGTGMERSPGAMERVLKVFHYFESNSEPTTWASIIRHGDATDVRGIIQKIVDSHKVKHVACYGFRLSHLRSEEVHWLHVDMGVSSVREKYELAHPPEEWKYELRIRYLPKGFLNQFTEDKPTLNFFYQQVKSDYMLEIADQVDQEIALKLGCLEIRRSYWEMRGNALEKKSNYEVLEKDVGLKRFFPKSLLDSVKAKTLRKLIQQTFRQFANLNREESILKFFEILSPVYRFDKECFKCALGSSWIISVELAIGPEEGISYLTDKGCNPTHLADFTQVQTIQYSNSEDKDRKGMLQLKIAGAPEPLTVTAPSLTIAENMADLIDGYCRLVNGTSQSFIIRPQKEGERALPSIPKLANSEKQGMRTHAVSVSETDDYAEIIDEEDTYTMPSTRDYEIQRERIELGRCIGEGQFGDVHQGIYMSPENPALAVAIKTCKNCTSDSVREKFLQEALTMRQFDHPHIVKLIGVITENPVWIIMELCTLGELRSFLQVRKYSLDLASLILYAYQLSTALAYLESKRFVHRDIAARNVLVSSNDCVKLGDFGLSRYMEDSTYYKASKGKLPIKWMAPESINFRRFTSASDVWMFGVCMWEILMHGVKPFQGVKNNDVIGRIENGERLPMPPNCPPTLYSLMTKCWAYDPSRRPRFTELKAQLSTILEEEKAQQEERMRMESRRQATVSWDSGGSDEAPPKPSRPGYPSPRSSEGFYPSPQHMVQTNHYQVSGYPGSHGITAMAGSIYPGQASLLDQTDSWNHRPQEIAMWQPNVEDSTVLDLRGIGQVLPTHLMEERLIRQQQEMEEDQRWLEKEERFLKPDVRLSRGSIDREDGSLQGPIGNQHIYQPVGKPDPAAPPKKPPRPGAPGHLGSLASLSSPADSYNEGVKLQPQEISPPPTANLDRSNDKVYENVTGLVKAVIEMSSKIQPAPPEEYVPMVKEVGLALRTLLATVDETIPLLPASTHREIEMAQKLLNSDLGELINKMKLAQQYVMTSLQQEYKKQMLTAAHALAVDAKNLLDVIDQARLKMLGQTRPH
T1 sequence (Q96SW2 whole entry partner): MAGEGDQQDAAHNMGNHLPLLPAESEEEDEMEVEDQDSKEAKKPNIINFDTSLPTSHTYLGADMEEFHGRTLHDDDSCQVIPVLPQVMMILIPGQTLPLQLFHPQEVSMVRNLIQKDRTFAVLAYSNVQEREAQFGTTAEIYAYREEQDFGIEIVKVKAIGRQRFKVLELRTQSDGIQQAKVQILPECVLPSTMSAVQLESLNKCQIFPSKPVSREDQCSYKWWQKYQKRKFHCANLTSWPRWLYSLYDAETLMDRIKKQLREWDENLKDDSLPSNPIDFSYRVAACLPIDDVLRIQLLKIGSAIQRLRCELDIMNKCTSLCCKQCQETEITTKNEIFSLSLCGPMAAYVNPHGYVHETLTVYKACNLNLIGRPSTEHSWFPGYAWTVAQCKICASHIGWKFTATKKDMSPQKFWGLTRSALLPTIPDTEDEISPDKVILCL

Row | Activity [1] [%] | Activity [2] [%] | Structure (SMILES)
1 | 25 to 49 | 85 to 100 | CS(=O)(=O)c1cccc(CNc2nc(Nc3ccc(C(=O)NCCCCCCCCNC(=O)COc4cccc5c4C(=O)N(C4CCC(=O)NC4=O)C5=O)cc3)ncc2C(F)(F)F)c1 (configuration not stated)
2 | 70 to 84 | 85 to 100 | CNC(=O)c1ccccc1Nc1cc(Nc2ccc(N3CCN(CCOCCOCCNC(=O)CNc4cccc5c4C(=O)N(C4CCC(=O)NC4=O)C5=O)CC3)cc2OC)ncc1C(F)(F)F (configuration not stated)
3 | 85 to 100 | 85 to 100 | CNC(=O)c1ccccc1Nc1cc(Nc2ccc(N3CCN(CCCCCCCCNC(=O)CNc4cccc5c4C(=O)N(C4CCC(=O)NC4=O)C5=O)CC3)cc2OC)ncc1C(F)(F)F (configuration not stated)
4 | 85 to 100 | 85 to 100 | CNC(=O)c1ccccc1Nc1cc(Nc2cc(C)c(C3CCN(CCCCCCNC(=O)COc4cccc5c4C(=O)N(C4CCC(=O)NC4=O)C5=O)CC3)cc2OC(C)C)ncc1C(F)(F)F (configuration not stated)
5 | 85 to 100 | 85 to 100 | CNC(=O)c1ccccc1Nc1cc(Nc2ccc(N3CCN(CCCCCCCCNc4cccc5c4C(=O)N(C4CCC(=O)NC4=O)C5=O)CC3)cc2OC)ncc1C(F)(F)F (configuration not stated)
6 | 85 to 100 | 85 to 100 | CNC(=O)c1ccccc1Nc1cc(Nc2ccc(N3CCN(CCCCCCNC(=O)COc4cccc5c4C(=O)N(C4CCC(=O)NC4=O)C5=O)CC3)cc2OC)ncc1C(F)(F)F (configuration not stated)
